In paper PMC4819188, “BitterX: a tool for understanding bitter taste in humans” (Scientific Reports, 2016):
Where two headings read alike, the source gives them in different places.

How the values were obtained:
Assay in all cases: calcium imaging (Fluo-4) dose-response, HEK293T
Assay type in all cases: cell-based
TAS2R41 = biological target: T1, TAS2R41 (Homo sapiens, UniProt P59536)
T1 construct: full ORF from human genomic DNA with N-terminal rhodopsin tag (first 20 residues), pCI; HEK293T with Galpha16/gust44
T1 sequence (P59536 1-307): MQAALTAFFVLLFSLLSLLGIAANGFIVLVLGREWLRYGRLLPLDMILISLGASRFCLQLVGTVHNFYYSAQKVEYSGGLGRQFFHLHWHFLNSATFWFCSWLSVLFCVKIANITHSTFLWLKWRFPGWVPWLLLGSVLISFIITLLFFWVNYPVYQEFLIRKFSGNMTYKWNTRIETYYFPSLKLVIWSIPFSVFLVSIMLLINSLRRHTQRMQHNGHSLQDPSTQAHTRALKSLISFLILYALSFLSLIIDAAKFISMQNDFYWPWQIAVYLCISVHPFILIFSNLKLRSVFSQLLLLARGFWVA
Excerpt: calcium imaging (Fluo-4) dose-response, HEK293T on TAS2R41

TAS2R10 = biological target: T2, TAS2R10 (Homo sapiens, UniProt Q9NYW0)
T2 construct: full ORF from human genomic DNA with N-terminal rhodopsin tag (first 20 residues), pCI; HEK293T with Galpha16/gust44
T2 sequence (Q9NYW0 1-307): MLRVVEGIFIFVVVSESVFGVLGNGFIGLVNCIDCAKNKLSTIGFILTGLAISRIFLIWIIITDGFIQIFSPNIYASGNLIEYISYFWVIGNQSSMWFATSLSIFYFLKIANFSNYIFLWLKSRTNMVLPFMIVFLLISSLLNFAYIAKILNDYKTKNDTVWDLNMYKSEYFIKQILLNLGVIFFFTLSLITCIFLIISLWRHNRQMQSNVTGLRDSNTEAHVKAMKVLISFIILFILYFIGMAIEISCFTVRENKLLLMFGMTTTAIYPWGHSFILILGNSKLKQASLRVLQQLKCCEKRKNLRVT
Excerpt: calcium imaging (Fluo-4) dose-response, HEK293T on TAS2R10

TAS2R4 = biological target: T3, TAS2R4 (Homo sapiens, UniProt Q9NYW5)
T3 construct: full ORF from human genomic DNA with N-terminal rhodopsin tag (first 20 residues), pCI; HEK293T with Galpha16/gust44
T3 sequence (Q9NYW5 1-299): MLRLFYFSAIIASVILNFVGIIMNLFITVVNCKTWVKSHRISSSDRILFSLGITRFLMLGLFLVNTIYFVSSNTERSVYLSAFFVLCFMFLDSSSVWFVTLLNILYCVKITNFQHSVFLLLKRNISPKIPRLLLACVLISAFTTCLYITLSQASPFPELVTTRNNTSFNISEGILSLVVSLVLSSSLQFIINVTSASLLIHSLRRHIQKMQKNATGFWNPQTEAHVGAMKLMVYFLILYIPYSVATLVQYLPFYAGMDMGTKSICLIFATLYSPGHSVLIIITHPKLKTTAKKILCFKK
Excerpt: calcium imaging (Fluo-4) dose-response, HEK293T on TAS2R4

TAS2R14 = biological target: T4, TAS2R14 (Homo sapiens, UniProt Q9NYV8)
T4 construct: full ORF from human genomic DNA with N-terminal rhodopsin tag (first 20 residues), pCI; HEK293T with Galpha16/gust44
T4 sequence (Q9NYV8 1-317): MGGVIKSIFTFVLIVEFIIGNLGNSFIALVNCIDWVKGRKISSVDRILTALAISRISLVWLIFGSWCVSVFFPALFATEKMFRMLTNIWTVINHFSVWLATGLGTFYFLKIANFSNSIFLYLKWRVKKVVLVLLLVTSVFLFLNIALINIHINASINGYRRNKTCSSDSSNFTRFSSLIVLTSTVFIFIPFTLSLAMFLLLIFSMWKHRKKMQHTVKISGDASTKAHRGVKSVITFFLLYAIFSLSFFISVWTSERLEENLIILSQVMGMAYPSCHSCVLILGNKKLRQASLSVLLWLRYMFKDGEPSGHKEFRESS
Excerpt: calcium imaging (Fluo-4) dose-response, HEK293T on TAS2R14

TAS2R39 = biological target: T5, TAS2R39 (Homo sapiens, UniProt P59534)
T5 construct: full ORF from human genomic DNA with N-terminal rhodopsin tag (first 20 residues), pCI; HEK293T with Galpha16/gust44
T5 sequence (P59534 1-338): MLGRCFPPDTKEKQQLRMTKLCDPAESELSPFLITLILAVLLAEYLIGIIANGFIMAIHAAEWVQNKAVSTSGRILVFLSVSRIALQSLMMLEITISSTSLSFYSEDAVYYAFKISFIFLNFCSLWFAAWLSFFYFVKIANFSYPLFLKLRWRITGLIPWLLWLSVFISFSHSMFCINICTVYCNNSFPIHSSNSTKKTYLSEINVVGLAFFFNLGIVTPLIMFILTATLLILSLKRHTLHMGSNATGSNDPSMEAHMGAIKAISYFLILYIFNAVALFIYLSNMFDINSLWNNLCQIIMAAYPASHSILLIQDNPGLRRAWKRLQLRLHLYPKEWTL
Excerpt: calcium imaging (Fluo-4) dose-response, HEK293T on TAS2R39

TAS2R46 = biological target: T6, TAS2R46 (Homo sapiens, UniProt P59540)
T6 construct: full ORF from human genomic DNA with N-terminal rhodopsin tag (first 20 residues), pCI; HEK293T with Galpha16/gust44
T6 sequence (P59540 1-309): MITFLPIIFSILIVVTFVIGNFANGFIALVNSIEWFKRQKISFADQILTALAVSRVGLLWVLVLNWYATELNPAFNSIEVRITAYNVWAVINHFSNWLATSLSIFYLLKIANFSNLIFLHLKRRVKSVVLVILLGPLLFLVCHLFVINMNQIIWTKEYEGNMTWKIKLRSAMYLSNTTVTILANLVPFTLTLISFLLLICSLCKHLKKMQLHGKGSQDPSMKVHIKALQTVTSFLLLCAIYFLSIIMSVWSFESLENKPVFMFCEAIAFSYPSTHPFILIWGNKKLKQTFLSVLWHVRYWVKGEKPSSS
Excerpt: calcium imaging (Fluo-4) dose-response, HEK293T on TAS2R46

TAS2R16 = biological target: T7, TAS2R16 (Homo sapiens, UniProt Q9NYV7)
T7 construct: full ORF from human genomic DNA with N-terminal rhodopsin tag (first 20 residues), pCI; HEK293T with Galpha16/gust44
T7 sequence (Q9NYV7 1-291): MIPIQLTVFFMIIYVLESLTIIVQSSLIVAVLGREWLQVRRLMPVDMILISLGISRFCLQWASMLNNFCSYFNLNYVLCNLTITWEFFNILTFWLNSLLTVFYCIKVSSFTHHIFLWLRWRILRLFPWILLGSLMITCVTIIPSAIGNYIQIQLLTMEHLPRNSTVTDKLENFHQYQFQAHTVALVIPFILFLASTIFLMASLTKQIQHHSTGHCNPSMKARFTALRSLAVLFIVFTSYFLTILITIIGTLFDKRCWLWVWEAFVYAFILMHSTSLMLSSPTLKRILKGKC
Excerpt: calcium imaging (Fluo-4) dose-response, HEK293T on TAS2R16

Row | Compound | EC50 (TAS2R10) | EC50 (TAS2R14) | EC50 (TAS2R10; read-out: Log EC50 (converted)) | EC50 (TAS2R14; read-out: Log EC50 (converted)) | further results
1 | N=C(N)NC(=N)Nc1ccccc1 [compound 1, 1] | 1540 µM | 760 µM |  |  | EC50 (TAS2R41): 3320 µM; EC50 (TAS2R4): 3710 µM
2 | c1ccc(CC2=NCCN2)cc1 [ww3] |  | 1280 µM |  |  | 
3 | COc1cc(/C=C\C(=O)O)cc(S(=O)(=O)Nc2ccc(C(=O)O)cc2)c1OC [compound 5, 5] | 4000 µM | 232 µM |  |  | EC50 (TAS2R39): 84.1 µM; EC50 (TAS2R46): 138 µM
4 | NC(=O)c1ccccc1O [compound 2, 2] |  |  | 9750 µM | 356 µM | EC50 (TAS2R16): 489 µM
5 | COc1ccccc1C=O [compound 4, 4] |  |  | 4000 µM | 1230 µM | 
